The target in test [1] is T1, RXFP3 (Homo sapiens, UniProt Q9NSD7).
T1 construct: expressed in transfected cells; host or cells: CHO-K1
T1 sequence (Q9NSD7 1-469): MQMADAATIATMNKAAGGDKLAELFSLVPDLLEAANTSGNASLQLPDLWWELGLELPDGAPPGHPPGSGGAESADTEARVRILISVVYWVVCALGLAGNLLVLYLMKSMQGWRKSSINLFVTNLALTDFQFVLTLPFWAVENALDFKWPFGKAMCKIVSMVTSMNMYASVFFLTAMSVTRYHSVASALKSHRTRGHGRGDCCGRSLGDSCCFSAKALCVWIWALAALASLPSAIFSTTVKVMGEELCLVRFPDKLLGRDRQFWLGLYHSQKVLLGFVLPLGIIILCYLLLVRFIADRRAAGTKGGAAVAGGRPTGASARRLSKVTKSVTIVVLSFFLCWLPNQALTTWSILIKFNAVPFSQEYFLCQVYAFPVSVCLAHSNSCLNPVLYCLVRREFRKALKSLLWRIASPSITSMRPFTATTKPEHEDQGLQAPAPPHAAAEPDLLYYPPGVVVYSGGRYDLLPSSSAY
Also on record: method as in 2 sources, one per row (each row's own in cited_ref): ref [37] = [37]; PMID 25792111; doi:10.1007/s00726-015-1961-x; 37. Haugaard-Kedström L.M. Wong L.L. Bathgate R.A. Rosengren K.J. Synthesis and pharmacological characterization of a europium-labelled single-chain antagonist for binding studies of the relaxin-3 rec ||| ref [28] = [28]; PMID 27464307; doi:10.1021/acs.jmedchem.6b00265; 28. Hojo K. Hossain M.A. Tailhades J. Shabanpoor F. Wong L.L. Ong-Palsson E.E. Kastman H.E. Ma S.K. Gundlach A.L. Rosengren K.J. Development of a single-chain peptide agonist of the relaxin-3 receptor. Conditions: read-out: Kd for Eu-R3 B1-22R; Kd of the Eu-labelled tracer at RXFP3, used to calculate pKi values; assay as previously described; ref [37]; cited from earlier work.

Test [2] concerns the target T1, RXFP3. Nature of the test: cAMP activity assay: inhibition of forskolin-induced cAMP accumulation in CHO-K1 cells stably expressing RXFP3. In kind it is cell-based. The conditions noted are these: for EC50: CHO-K1 cells stably expressing RXFP3, inhibition of cAMP accumulation stimulated by 5 μM forskolin, mean ± SEM, triplicates, three independent experiments; for maximum cAMP accumulation inhibition: at the highest concentration tested, CHO-K1 cells expressing RXFP3, forskolin-stimulated (Figure 3). On the procedure: CHO-KI cells stably expressing RXFP3 were used to study the ability of the novel analogues to inhibit forskolin-induced cAMP accumulation. Assays were conducted as previously described. Briefly, 5 μM forskolin was used to stimulate the cells and increasing concentrations of the novel analogues were added to measure the dose-dependent reduction in the cAMP response via activation of the Gi/o-coupled RXFP3. Each analogue was tested in triplicates and each experiment was independently repeated three times. Data are presented as mean ± SEM and were analysed using GraphPad Prism 8.0. Statistical analyses were conducted using 1-way ANOVA and uncorrected Fisher’s least square difference.
(§1) To determine their binding affinity, the ability of increasing concentration of analogues to compete with europium labelled R3 B1-22R were measured using CHO cells stably expressing RXFP3 [37]. Their potency at RXFP3 was measured by inhibition of cAMP accumulation induced by forskolin, as RXFP3 couples to an inhibitory G-protein.

Test [3] addresses T1, RXFP3. Nature of the test: Competition binding assay with Eu-labelled R3 B1-22R on CHO-K1 cells stably expressing RXFP3. Conditions: SEM; read-out: pKi [logM] (converted). On the procedure:
Determination of binding affinity in this study was carried out as previously described. Briefly, CHO-K1 cells stably expressing RXFP3 [38] were treated with 5 nM Eu-labelled R3 B1-22R with increasing concentrations of novel analogues. Fluorescence measurement were recorded with 340 nm excitation and 614 nm emission wavelengths. Assays were conducted in triplicates and independently repeated at least three times. […] Statistical analyses were conducted using 1-way ANOVA with uncorrected Fisher’s least square difference in GraphPad Prism 8.0.
as §1

Where a SMILES comes first, the peptide text is derived from it. Where no end group is shown, it is not given here. A value given as a limit tells only on which side of the number the result lay.

As usually defined, the Kd is the free concentration of one partner at which half of the binding sites on the other are occupied at equilibrium, for simple one-to-one binding. Turning to “Eu-R3 B1-22R: europium-labelled single-chain antagonist used as tracer in the RXFP3 binding assay (RAAPYGVRLSGREFIRAVIFTSR; also: europium chelate label, attachment site not given here)”, the Kd in the test with RXFP3 [1] was 27.9 ± 9.4 nM.
As a reminder, the EC50 is the concentration giving half of the maximal effect. A lower EC50 goes with a more potent agent. As to `CC[C@H](C)[C@H](NC(=O)[C@H](Cc1ccccc1)NC(=O)C(C)(C)NC(=O)[C@H](CCCNC(=N)N)NC(=O)CNC(=O)[C@@H](N)CO)C(=O)N[C@@H](CCCNC(=N)N)C(=O)NC(C)(C)C(=O)N[C@H](C(=O)N[C@H](C(=O)N[C@@H](Cc1ccccc1)C(=O)N[C@H](C(=O)NC(C)(C)C(=O)NCC(=O)NCC(=O)N[C@@H](CO)C(=O)N[C@@H](CCCNC(=N)N)C(=O)N[C@@H](Cc1c[nH]c2ccccc12)C(=O)O)[C@@H](C)O)[C@@H](C)CC)C(C)C` [Analogue 7] (HELM PEPTIDE1{S.G.R.[Aib].F.I.R.[Aib].V.I.F.T.[Aib].G.G.S.R.W}$$$$V2.0), on RXFP3 [2], the EC50 is greater than 10000 nM and the “maximum cAMP accumulation inhibition” value was ~ 50%. Moreover, on RXFP3 [3], the Ki is 1120 nM.
For the compound `CC[C@H](C)[C@@H]1NC(=O)[C@H](Cc2ccccc2)NC(=O)[C@@H](NC(=O)[C@H](CCCNC(=N)N)NC(=O)CNC(=O)[C@H](CO)NC(C)=O)CSCc2cccc(c2)CSC[C@@H](C(=O)N[C@H](C(=O)N[C@H](C(=O)N[C@@H](Cc2ccccc2)C(=O)N[C@H](C(=O)N[C@@H](CO)C(=O)NCC(=O)NCC(=O)N[C@@H](CO)C(=O)N[C@@H](CCCNC(=N)N)C(=O)N[C@@H](Cc2c[nH]c3ccccc23)C(=O)O)[C@@H](C)O)[C@@H](C)CC)C(C)C)NC(=O)[C@H](CCCNC(=N)N)NC1=O` [Analogue 17] (HELM PEPTIDE1{[ac].S.G.R.C.F.I.R.C.V.I.F.T.S.G.G.S.R.W}|CHEM1{[c1cc(C[*:1])cc(C[*:2])c1]}$PEPTIDE1,CHEM1,5:R3-1:R1|PEPTIDE1,CHEM1,9:R3-1:R2$$$V2.0), the EC50 at RXFP3 [2] (SEM) is 851 nM. Also, the Ki on RXFP3 [3] is 1050 nM.
On to `CC[C@H](C)[C@H](NC(=O)[C@@H](NC(=O)C(C)(C)NC(=O)[C@H](CCCNC(=N)N)NC(=O)[C@@H](NC(=O)C(C)(C)NC(=O)C(C)(C)NC(=O)[C@H](CCCNC(=N)N)NC(=O)CNC(=O)[C@H](CO)NC(C)=O)[C@@H](C)CC)C(C)C)C(=O)N[C@@H](Cc1ccccc1)C(=O)N[C@H](C(=O)N[C@@H](CO)C(=O)NCC(=O)NCC(=O)N[C@@H](CO)C(=O)N[C@@H](CCCNC(=N)N)C(=O)N[C@@H](Cc1c[nH]c2ccccc12)C(=O)O)[C@@H](C)O` [Analogue 2] (HELM PEPTIDE1{[ac].S.G.R.[Aib].[Aib].I.R.[Aib].V.I.F.T.S.G.G.S.R.W}$$$$V2.0), for which it took 550 nM to reach a half-maximal effect on RXFP3 [2] (SEM) (EC50). Moreover, the Ki at RXFP3 [3] is 1480 nM.
On the same counts, the results for `CC[C@H](C)[C@H](NC(=O)[C@H](Cc1ccccc1)NC(=O)C(C)(C)NC(=O)[C@H](CCCNC(=N)N)NC(=O)CNC(=O)[C@H](CO)NC(C)=O)C(=O)N[C@@H](CCCNC(=N)N)C(=O)NC(C)(C)C(=O)N[C@H](C(=O)N[C@H](C(=O)N[C@@H](Cc1ccccc1)C(=O)NC(C)(C)C(=O)N[C@@H](CO)C(=O)NCC(=O)NCC(=O)N[C@@H](CO)C(=O)N[C@@H](CCCNC(=N)N)C(=O)N[C@@H](Cc1c[nH]c2ccccc12)C(=O)O)[C@@H](C)CC)C(C)C` [Analogue 6] (HELM PEPTIDE1{[ac].S.G.R.[Aib].F.I.R.[Aib].V.I.F.[Aib].S.G.G.S.R.W}$$$$V2.0) are 1860 nM and 1700 nM.
Consider `CC[C@H](C)[C@H](NC(=O)[C@H](Cc1ccccc1)NC(=O)C(C)(C)NC(=O)[C@H](CCCNC(=N)N)NC(=O)CNC(=O)[C@H](CO)NC(C)=O)C(=O)N[C@@H](CCCNC(=N)N)C(=O)NC(C)(C)C(=O)N[C@H](C(=O)N[C@H](C(=O)N[C@@H](Cc1ccccc1)C(=O)N[C@H](C(=O)NC(C)(C)C(=O)NCC(=O)NCC(=O)N[C@@H](CO)C(=O)N[C@@H](CCCNC(=N)N)C(=O)N[C@@H](Cc1c[nH]c2ccccc12)C(=O)O)[C@@H](C)O)[C@@H](C)CC)C(C)C` [Analogue 8] (HELM PEPTIDE1{[ac].S.G.R.[Aib].F.I.R.[Aib].V.I.F.T.[Aib].G.G.S.R.W}$$$$V2.0), for which, on RXFP3 [2], the EC50 was greater than 10000 nM and the “maximum cAMP accumulation inhibition” value is listed as ~ 50%. For the same compound, on RXFP3 [3], the Ki is 955 nM.
At RXFP3 [2] (SEM), `CC[C@H](C)[C@@H]1NC(=O)[C@H](Cc2ccccc2)NC(=O)[C@@H](NC(=O)[C@H](CCCNC(=N)N)NC(=O)CNC(=O)[C@@H](N)CO)CSCc2cccc(c2)CSC[C@@H](C(=O)N[C@H](C(=O)N[C@H](C(=O)N[C@@H](Cc2ccccc2)C(=O)N[C@H](C(=O)N[C@@H](CO)C(=O)NCC(=O)NCC(=O)N[C@@H](CO)C(=O)N[C@@H](CCCNC(=N)N)C(=O)N[C@@H](Cc2c[nH]c3ccccc23)C(=O)O)[C@@H](C)O)[C@@H](C)CC)C(C)C)NC(=O)[C@H](CCCNC(=N)N)NC1=O` [Analogue 16] (HELM PEPTIDE1{S.G.R.C.F.I.R.C.V.I.F.T.S.G.G.S.R.W}|CHEM1{[c1cc(C[*:1])cc(C[*:2])c1]}$PEPTIDE1,CHEM1,4:R3-1:R1|PEPTIDE1,CHEM1,8:R3-1:R2$$$V2.0) showed an EC50 of 1050 nM. Also, the Ki at RXFP3 [3] is 1000 nM.
For `CC[C@H](C)[C@H](NC(=O)[C@H](Cc1ccccc1)NC(=O)C(C)(C)NC(=O)[C@H](CCCNC(=N)N)NC(=O)CNC(=O)[C@H](CO)NC(C)=O)C(=O)N[C@@H](CCCNC(=N)N)C(=O)NC(C)(C)C(=O)NC(C)(C)C(=O)N[C@H](C(=O)N[C@@H](Cc1ccccc1)C(=O)N[C@H](C(=O)N[C@@H](CO)C(=O)NCC(=O)NCC(=O)N[C@@H](CO)C(=O)N[C@@H](CCCNC(=N)N)C(=O)N[C@@H](Cc1c[nH]c2ccccc12)C(=O)O)[C@@H](C)O)[C@@H](C)CC` [Analogue 4] (HELM PEPTIDE1{[ac].S.G.R.[Aib].F.I.R.[Aib].[Aib].I.F.T.S.G.G.S.R.W}$$$$V2.0), in that order: 33.1 nM and 759 nM.

These data come from PMC7602263, “Exploring the Use of Helicogenic Amino Acids for Optimising Single Chain Relaxin-3 Peptide Agonists” (Biomedicines, 2020).
